The values below come from publication PMC10477861, “Efficient Mining of Anticancer Peptides from Gut Metagenome” (Advanced Science, 2023).

Settings in all cases: 25 µM pACP, 24 h, maintenance medium 1% FBS, ratio of viability to vehicle (PBS), at least three technical repetitions
In experiment [1] the test system is MDA-MB-453. Description: MTT primary screening of anticancer activity, MDA-MB-453. Format: cell-based. An excerpt:
(§1) We successfully chemically synthesized 40 pACPs for the purpose of in vitro or in vivo characterization of their potential anticancer efficacy. In the initial step, we conducted an in vitro primary screen of these 40 pACPs using a panel of 16 different cancer cell lines, including four human CRC lines (HT29, Caco2, HCT116, and […]), as well as 12 other cancer models (Table S4, Supporting Information). We deliberately selected a diverse panel of cell lines to assess the effect of pACPs across various genetic backgrounds. Briefly, the cancer cells were cultured in specific media (details provided in the Experimental Section) and then treated with pACPs at a final concentration of 25 µM. Peptides with minimum effective inhibition concentrations >25 µM were considered non‐ACPs. After exposure to pACPs, the survival rate of the cancer cells was measured using the MTT assay. Remarkably, 39 out of the 40 pACPs (97.5%) induced at least 20% inhibition in at least one cell line (Figure 3a and Table S5, Supporting Information). […] Thus, our method successfully identified pACPs with a very high rate of anticancer effects across various cancer cell lines.
(§2) To evaluate the activity of the 40 potentially effective pACPs, a panel of 16 cancer cell lines was treated, including human CRC cell lines (HT29, Caco‐2, HCT116). Details of the cell lines used, respective media, and culture conditions were presented in Table S1 (Supporting Information). Once the cells reached 60% confluence, it was incubated with each candidate peptide at a concentration of 25 µM pACPs for 24 h. Concurrently, the complete medium was replaced with a maintenance medium containing only 1% FBS. Subsequently, the viability of each cell line using the MTT Cell Proliferation and Cytotoxicity Assay Kit according to the manufacturer's instructions was assessed. […] For the CRC cell line CT26, it was calculated the CC50 value using two peptides (pACP1780 and pACP2283) with relevant data presented in Table S6 (Supporting Information). The calculation was performed using an online tool: https://www.aatbio.com/tools/ic50‐calculator.

Experiment [2] relates to HT29. Description: MTT primary screening of anticancer activity, HT29. The class given is cell-based, Human.
From the text: as §1, §2

Experiment [3] has as its system EFM192A. As to the kind of experiment: MTT primary screening of anticancer activity, EFM192A. Format: cell-based.
From the text: as §1, §2

For experiment [4], the system named is LCC. As to the kind of experiment: MTT primary screening of anticancer activity, LCC. Format: cell-based.
From the text: as §1, §2

For experiment [5], the system named is MCF7. As to the kind of experiment: MTT primary screening of anticancer activity, MCF7. Format: cell-based.
From the text: as §1, §2

The test system of experiment [6] is HCT116. Description: MTT primary screening of anticancer activity, HCT116. Format: cell-based, Human.
From the text: as §1, §2

Experiment [7] has as its system MDA-MB-436. Description: MTT primary screening of anticancer activity, MDA-MB-436. The class given is cell-based.
From the text: as §1, §2

For experiment [8], the system named is SK-BR-3. Description: MTT primary screening of anticancer activity, SK-BR-3. Format: cell-based.
From the text: as §1, §2

Experiment [9] deals with CT26. As to the kind of experiment: MTT primary screening of anticancer activity, CT26. Format: cell-based, Murine.
From the text: as §1, §2

For experiment [10], the system named is B16. As to the kind of experiment: MTT primary screening of anticancer activity, B16. The class given is cell-based, Mouse.
From the text: as §1, §2

Experiment [11] has as its system BT474. Description: MTT primary screening of anticancer activity, BT474. The class given is cell-based.
From the text: as §1, §2

Experiment [12] deals with Caco2. Description: MTT primary screening of anticancer activity, Caco2. Format: cell-based, Human.
From the text: as §1, §2

Experiment [13] relates to Hela. Description: MTT primary screening of anticancer activity, Hela. Format: cell-based, Human.
From the text: as §1, §2

Experiment [14] relates to MDA-MB-231. As to the kind of experiment: MTT primary screening of anticancer activity, MDA-MB-231. The class given is cell-based.
From the text: as §1, §2

For experiment [15], the system named is T47D. Description: MTT primary screening of anticancer activity, T47D. The class given is cell-based.
From the text: as §1, §2

The subject of experiment [16] is MDA-MB-468. As to the kind of experiment: MTT primary screening of anticancer activity, MDA-MB-468. Format: cell-based.
From the text: as §1, §2

As to “KSLQMVLSFVIIFADKKKTLATLIVAKKKKGW [pACP1096]”, the “Survival rate of cancer cells in primary screening” value (from here on “Survival rate of cancer cells”) in [1] is recorded as 1.00; in experiment [2], 0.71; in experiment [3] it was 1.00; in experiment [4], 1.00; in experiment [5], 1.00; in experiment [6], 1.00. Further, the “Survival rate of cancer cells” value in [7] was 0.69; in [8], 1.00; in [9], 1.00; in experiment [10], 1.00; in [11], 1.00; in experiment [12] it was 1.00. Moreover, the “Survival rate of cancer cells” value in [13], in experiment [14], in [15] and in experiment [16] was 1.00 throughout.
Turning to “LARPDAAPKKQLRRPLRFRQPEWRRISKIHHIPRRFRRA [pACP1156]”, the “Survival rate of cancer cells” value in experiment [1], in experiment [2], in experiment [3], in experiment [4], in experiment [5] and in experiment [6] was 1.00 each time. Also, the “Survival rate of cancer cells” value in experiment [7] was found to be 0.74; in experiment [8], 1.00; in [9] it was 1.00; in [10], 0.78; in experiment [11] it was 1.00; in [12], 1.00. The “Survival rate of cancer cells” value in [13] is recorded as 1.00; in experiment [14], 1.00; in [15], 0.74; in [16], 1.00.
Regarding “LLSDFRQYRTKIVRQMRRQIFRQMKQKAE [pACP1210]”, the “Survival rate of cancer cells” value is 1.00 in [1]; 1.00 in experiment [2]; 1.00 in [3]; 1.00 in experiment [4]; 0.79 in [5]; 1.00 in [6]. For the same sequence, the “Survival rate of cancer cells” value in [7] turned out to be 1.00; in experiment [8] it was 1.00; in [9] it was 1.00; in experiment [10], 0.76; in experiment [11] it was 1.00; in [12] it was 1.00. Besides, the “Survival rate of cancer cells” value in experiment [13] is reported as 1.00; in experiment [14], 1.00; in [15] it was 0.65; in experiment [16] it was 1.00.
With NFWLSTLTGHGFCAVVSAARAGS [pACP1292], the “Survival rate of cancer cells” value is given as 1.00 in experiment [1]; 1.00 in experiment [2]; 0.40 in experiment [3]; 1.00 in experiment [4]; 0.79 in [5]; 1.00 in experiment [6]. In addition, the “Survival rate of cancer cells” value was found to be 0.74 in [7]; 1.00 in experiment [8]; 1.00 in [9]; 1.00 in experiment [10]; 1.00 in experiment [11]; 1.00 in experiment [12]. In addition, the “Survival rate of cancer cells” value in [13] stood at 1.00; in [14] it was 1.00; in [15] it was 0.76; in [16], 1.00.
Regarding “NLTPPSRRATSPIFCVAKHRGGVCECPTIPQGIGEGVKGHSPFEVEG [pACP1349]”, the “Survival rate of cancer cells” value in experiment [1], in [2], in [3], in [4], in [5] and in [6] was 1.00 each time. Also, the “Survival rate of cancer cells” value in experiment [7] was determined as 1.00; in [8], 1.00; in [9], 1.00; in experiment [10], 0.66; in [11], 1.00; in experiment [12], 1.00. Further, the “Survival rate of cancer cells” value in experiment [13] was determined as 1.00; in [14], 1.00; in experiment [15], 0.62; in [16] it was 1.00.
On to “NQRKRTACDRRRSICDERIAAGICKRNFRCKKYLKINGTIGLSIRLGKLG [pACP1381]”, for which the “Survival rate of cancer cells” value is listed as 1.00 in [1]; 0.69 in [2]; 1.00 in experiment [3]; 1.00 in experiment [4]; 1.00 in experiment [5]; 1.00 in [6]. Besides, the “Survival rate of cancer cells” value in [7] is recorded as 1.00; in experiment [8] it was 1.00; in experiment [9], 1.00; in experiment [10], 0.76; in experiment [11], 1.00; in experiment [12], 0.69. The “Survival rate of cancer cells” value in [13], in experiment [14], in experiment [15] and in experiment [16] was 1.00 each time.
Regarding “NSFCRQTALCSVALGQYRTKIVRQMRRQIFRQMKQKAE [pACP1403]”, the “Survival rate of cancer cells” value in experiment [1], in experiment [2], in experiment [3], in experiment [4], in [5] and in experiment [6] was 1.00 throughout. In addition, the “Survival rate of cancer cells” value in experiment [7], in experiment [8], in experiment [9], in experiment [10], in experiment [11] and in experiment [12] was 1.00 each time. Also, the “Survival rate of cancer cells” value in experiment [13] was 1.00; in experiment [14], 1.00; in experiment [15], 0.71; in experiment [16], 0.73.
